Reference: ChEMBL document CHEMBL3102795, “Discovery of 1-oxa-4,9-diazaspiro[5.5]undecane-based trisubstituted urea derivatives as highly potent soluble epoxide hydrolase inhibitors and orally active drug candidates for treating of chronic kidney diseases” (Bioorg Med Chem Lett, 2014)
Values after ≈ are worked out from the molar mass of the structure shown. Active and inactive are the calls of the source. The calls are words filed in the database; no cut-off is given here.

Experiments:
Liver microsome = assay: Metabolic stability in human liver microsomes measured per mg of protein; assay type: ADME
[1] = Solubility of the compound in simulated gastric fluid compliant with Japanese pharmacopeia; assay type: ADME
[2] = Solubility of the compound in simulated intestinal fluid compliant with Japanese pharmacopeia; assay type: ADME
[3] = molecular target: T1, Bifunctional epoxide hydrolase 2 (Rattus norvegicus, UniProt P80299); assay: Inhibition of rat recombinant sEH expressed in baculovirus infected insect Sf9 cells using cyano(6-methoxynaphthalen-2-yl)methyl trans-[(3-phenyloxiran-2-yl)methyl] carbonate as substrate preincubated for 30 mins followed by substrate addition measured after 20 to 45 mins by fluorescence assay
T1 sequence (P80299 whole entry): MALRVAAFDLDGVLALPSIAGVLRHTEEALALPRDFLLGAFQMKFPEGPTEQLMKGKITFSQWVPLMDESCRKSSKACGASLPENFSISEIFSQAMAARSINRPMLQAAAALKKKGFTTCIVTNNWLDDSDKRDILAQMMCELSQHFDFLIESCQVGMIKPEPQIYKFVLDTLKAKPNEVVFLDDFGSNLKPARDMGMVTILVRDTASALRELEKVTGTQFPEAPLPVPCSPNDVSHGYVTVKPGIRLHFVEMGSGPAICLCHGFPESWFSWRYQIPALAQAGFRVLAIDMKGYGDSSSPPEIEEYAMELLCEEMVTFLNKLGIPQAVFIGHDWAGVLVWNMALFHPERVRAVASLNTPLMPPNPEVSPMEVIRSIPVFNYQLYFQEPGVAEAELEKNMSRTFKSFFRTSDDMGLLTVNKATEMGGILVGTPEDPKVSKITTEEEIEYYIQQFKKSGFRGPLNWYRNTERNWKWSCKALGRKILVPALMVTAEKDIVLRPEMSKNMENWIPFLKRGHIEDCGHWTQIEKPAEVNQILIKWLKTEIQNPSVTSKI

[4] = molecular target: T2, Bifunctional epoxide hydrolase 2 (Homo sapiens, UniProt P34913); assay: Inhibition of human recombinant sEH expressed in baculovirus infected insect Sf9 cells using cyano(6-methoxynaphthalen-2-yl)methyl trans-[(3-phenyloxiran-2-yl)methyl] carbonate as substrate preincubated for 30 mins followed by substrate addition measured after 20 to 45 mins by fluorescence assay
T2 sequence (P34913 whole entry): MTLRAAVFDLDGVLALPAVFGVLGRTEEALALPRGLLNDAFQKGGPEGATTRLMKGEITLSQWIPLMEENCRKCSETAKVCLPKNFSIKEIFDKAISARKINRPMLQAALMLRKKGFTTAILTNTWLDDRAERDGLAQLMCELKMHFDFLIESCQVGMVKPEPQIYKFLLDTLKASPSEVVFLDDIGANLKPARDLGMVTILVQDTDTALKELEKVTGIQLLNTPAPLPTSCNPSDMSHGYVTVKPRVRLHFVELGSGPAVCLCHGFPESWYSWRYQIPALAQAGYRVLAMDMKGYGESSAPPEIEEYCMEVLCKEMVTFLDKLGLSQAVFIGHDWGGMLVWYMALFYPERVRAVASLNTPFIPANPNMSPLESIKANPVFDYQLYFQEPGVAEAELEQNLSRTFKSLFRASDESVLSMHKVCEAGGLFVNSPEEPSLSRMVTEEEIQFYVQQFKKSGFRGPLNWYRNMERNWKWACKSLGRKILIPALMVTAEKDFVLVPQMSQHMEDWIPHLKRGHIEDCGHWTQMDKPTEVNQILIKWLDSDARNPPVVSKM

[5] = Oral bioavailability in rat at 1 mg/kg; assay type: ADME, organism-based; conditions: in vivo
[6] = Tmax in rat at 1 mg/kg, po; assay type: ADME, organism-based; design: dose 1 mg/kg, route oral; conditions: in vivo
[7] = AUC (0 to infinity) in rat at 1 mg/kg, po; assay type: ADME, organism-based; design: time infinity, dose 1 mg/kg, route oral; conditions: plasma
[8] = Cmax in rat at 1 mg/kg, po; assay type: ADME, organism-based; design: dose 1 mg/kg, route oral; conditions: in vivo
[9] = Total clearance in rat at 0.2 mg/kg, iv; assay type: ADME, organism-based; design: dose 0.2 mg/kg, route intravenous; conditions: in vivo
[10] = Volume of distribution at steady state in rat at 0.2 mg/kg, iv; assay type: ADME, organism-based; design: dose 0.2 mg/kg, route intravenous; conditions: in vivo, read-out: Vdss
[11] = Half life in rat at 0.2 mg/kg, iv; assay type: ADME, organism-based; design: dose 0.2 mg/kg, route intravenous; conditions: in vivo
[12] = AUC (0 to infinity) in rat at 0.2 mg/kg, iv; assay type: ADME, organism-based; design: time infinity, dose 0.2 mg/kg, route intravenous; conditions: plasma
[13] = Drug uptake in rat at 0.2 mg/kg, iv at 5 mins; assay type: ADME, organism-based; design: dose 0.2 mg/kg, route intravenous; conditions: in vivo, read-out: Drug uptake
Rattus norvegicus = assay: Reduction of serum creatinine level in rat anti-glomerular basement membrane glomerulonephritis model at 30 mg/kg, po qd administered for 3 weeks; assay type: functional, organism-based; design: dose 30 mg/kg

Compound | CLint (Liver microsome) | solubility [1] | solubility [2] | IC50 [3] | IC50 [4] | bioavailability [5] | Tmax [6] | AUC(0-inf) [7] | Cmax [8] | clearance [9] | Vd [10] | half-life [11] | AUC(0-inf) [12] | concentration at 5 min [13] | Activity (Rattus norvegicus)
O=C(Nc1ccc(OC(F)(F)F)cc1)N1CCOC2(CCN(C(=O)c3c[nH]nc3C3CC3)CC2)C1 | 35 µL/min/mg | 93 µg/mL (≈ 188 µM) | 92 µg/mL (≈ 186 µM) | 96.9 nM | 1.1 nM |  |  |  |  |  |  |  |  |  | 
O=C(Nc1ccc(C(F)(F)F)cc1)N1CCOC2(CCN(C(=O)c3ccccc3)CC2)C1 |  | 62 µg/mL (≈ 139 µM) | 63 µg/mL (≈ 141 µM) |  | 3.2 nM |  |  |  |  |  |  |  |  |  | 
CC(=O)Nc1ccccc1C(=O)N1CCC2(CC1)CN(C(=O)Nc1ccc(C(F)(F)F)cc1)CCO2 | 39 µL/min/mg | 92 µg/mL (≈ 182 µM) | 93 µg/mL (≈ 184 µM) | 6.8 nM | 0.8 nM |  |  |  |  |  |  |  |  |  | 
O=C(Nc1ccc(OC(F)(F)F)cc1)N1CCOC2(CCN(C(=O)c3cnoc3C3CC3)CC2)C1 | 87 µL/min/mg | 86 µg/mL (≈ 174 µM) | 89 µg/mL (≈ 180 µM) | 22.2 nM | 0.6 nM |  |  |  |  |  |  |  |  |  | 
O=C(CC1CC1)N1CCC2(CC1)CN(C(=O)Nc1ccc(C(F)(F)F)cc1)CCO2 | 74 µL/min/mg | 79 µg/mL (≈ 186 µM) | 79 µg/mL (≈ 186 µM) | 31.4 nM | 2.1 nM |  |  |  |  |  |  |  |  |  | 
O=C(Nc1ccc(C(F)(F)F)cc1)N1CCOC2(CCN(C(=O)c3ccccc3Cl)CC2)C1 | 48 µL/min/mg | 10 µg/mL (≈ 20.8 µM) | 12 µg/mL (≈ 24.9 µM) | 13 nM | 1.4 nM |  |  |  |  |  |  |  |  |  | 
CC(C)(C)C(=O)N1CCC2(CC1)CN(C(=O)Nc1ccc(C(F)(F)F)cc1)CCO2 | 98 µL/min/mg | 76 µg/mL (≈ 178 µM) | 73 µg/mL (≈ 171 µM) | 12 nM | 2.9 nM |  |  |  |  |  |  |  |  |  | 
O=C(Nc1ccc(C(F)(F)F)cc1)N1CCOC2(CCN(C(=O)c3cccc(Cl)c3)CC2)C1 | 100 µL/min/mg | 26 µg/mL (≈ 54 µM) | 21 µg/mL (≈ 43.6 µM) | 36.9 nM | 1.2 nM |  |  |  |  |  |  |  |  |  | 
O=C(Nc1ccc(OC(F)(F)F)cc1)N1CCOC2(CCN(C(=O)C3CCCCC3)CC2)C1 | 357 µL/min/mg | 69 µg/mL (≈ 147 µM) | 63 µg/mL (≈ 134 µM) | 14.5 nM | 0.6 nM |  |  |  |  |  |  |  |  |  | 
COc1ccccc1CC(=O)N1CCC2(CC1)CN(C(=O)Nc1ccc(OC(F)(F)F)cc1)CCO2 | 461 µL/min/mg | 66 µg/mL (≈ 130 µM) | 59 µg/mL (≈ 116 µM) | 71.6 nM | 0.5 nM |  |  |  |  |  |  |  |  |  | 
O=C(Nc1ccc(C(F)(F)F)cc1)N1CCOC2(CCN(C(=O)c3ccco3)CC2)C1 |  | 75 µg/mL (≈ 171 µM) | 75 µg/mL (≈ 171 µM) |  | 5.4 nM |  |  |  |  |  |  |  |  |  | 
O=C(Nc1ccc(C(F)(F)F)cc1)N1CCOC2(CCN(C(=O)c3ccc(Cl)cc3)CC2)C1 | 21 µL/min/mg | 29 µg/mL (≈ 60.2 µM) | 23 µg/mL (≈ 47.7 µM) | 24.9 nM | 1 nM |  |  |  |  |  |  |  |  |  | 
O=C(Nc1ccc(OC(F)(F)F)cc1)N1CCOC2(CCN(C(=O)C3(c4ccccc4)CC3)CC2)C1 | 228 µL/min/mg | 37 µg/mL (≈ 73.5 µM) | 33 µg/mL (≈ 65.5 µM) | 28 nM | 0.4 nM |  |  |  |  |  |  |  |  |  | 
N#Cc1ccc(C(=O)N2CCC3(CC2)CN(C(=O)Nc2ccc(C(F)(F)F)cc2)CCO3)cc1 | 3 µL/min/mg | 85 µg/mL (≈ 180 µM) | 82 µg/mL (≈ 174 µM) | 15 nM | 1.9 nM |  |  |  |  |  |  |  |  |  | 
O=C(Nc1ccc(C(F)(F)F)cc1)N1CCOC2(CCN(C(=O)c3ccccn3)CC2)C1 |  | 85 µg/mL (≈ 190 µM) | 83 µg/mL (≈ 185 µM) |  | 4.2 nM |  |  |  |  |  |  |  |  |  | 

More lines, main results first:

CLint (Liver microsome) | solubility [1] | solubility [2] | IC50 [3] | IC50 [4] | bioavailability [5] | Tmax [6] | AUC(0-inf) [7] | Cmax [8] | clearance [9] | Vd [10] | half-life [11] | AUC(0-inf) [12] | concentration at 5 min [13] | Compound | Activity (Rattus norvegicus)
47 µL/min/mg | 84 µg/mL (≈ 179 µM) | 83 µg/mL (≈ 177 µM) | 25.7 nM | 1.4 nM | 24.1% | 2 h | 123 ng·h/mL | 9.58 ng/mL | 36.9 mL/min/kg | 3.31 L/kg | 1.17 h | 90.2 ng·h/mL | 77.7 ng/mL | Cc1cc(C(=O)N2CCC3(CC2)CN(C(=O)Nc2ccc(OC(F)(F)F)cc2)CCO3)no1 | 
 | 52 µg/mL (≈ 104 µM) | 46 µg/mL (≈ 92.1 µM) |  | 5.4 nM |  |  |  |  |  |  |  |  |  | O=C(Nc1ccc(OC(F)(F)F)cc1)N1CCC2(CC1)CN(C(=O)c1c(F)cccc1F)CCO2 | 
93 µL/min/mg | 43 µg/mL (≈ 88.9 µM) | 38 µg/mL (≈ 78.6 µM) | 19.1 nM | 1.3 nM |  |  |  |  |  |  |  |  |  | O=C(Nc1ccc(C(F)(F)F)cc1)N1CCOC2(CCN(C(=O)c3c(F)cccc3F)CC2)C1 | 
12 µL/min/mg | 91 µg/mL (≈ 190 µM) | 92 µg/mL (≈ 192 µM) | 8.8 nM | 0.9 nM | 11.1% | 1 h | 61.3 ng·h/mL | 8.64 ng/mL | 30.1 mL/min/kg | 1.82 L/kg | 1.53 h | 111 ng·h/mL | 134 ng/mL | Cc1cnc(C(=O)N2CCC3(CC2)CN(C(=O)Nc2ccc(OC(F)(F)F)cc2)CCO3)cn1 | 
86 µL/min/mg | 44 µg/mL (≈ 88.1 µM) | 39 µg/mL (≈ 78.1 µM) | 18.5 nM | 0.7 nM |  |  |  |  |  |  |  |  |  | O=C(Nc1ccc(OC(F)(F)F)cc1)N1CCOC2(CCN(C(=O)c3c(F)cccc3F)CC2)C1 | 
602 µL/min/mg | 9 µg/mL (≈ 18.1 µM) | 9 µg/mL (≈ 18.1 µM) | 3.3 nM | 0.125 nM |  |  |  |  |  |  |  |  |  | O=C(Nc1ccc(OC(F)(F)F)cc1)N1CCCC2(CCN(C(=O)c3c(F)cccc3F)CC2)C1 | 
30 µL/min/mg | 71 µg/mL (≈ 147 µM) | 62 µg/mL (≈ 129 µM) | 9.3 nM | 1.1 nM | 35.4% | 1 h | 306 ng·h/mL | 20.4 ng/mL | 19.3 mL/min/kg | 3.56 L/kg | 2.63 h | 173 ng·h/mL | 71 ng/mL | O=C(Nc1ccc(OC(F)(F)F)cc1)N1CCOC2(CCN(C(=O)c3ccccc3F)CC2)C1 | Active
29 µL/min/mg | 96 µg/mL (≈ 185 µM) | 93 µg/mL (≈ 179 µM) | > 20 nM | 1.8 nM |  |  |  |  |  |  |  |  |  | O=C1Cc2cc(C(=O)N3CCC4(CC3)CN(C(=O)Nc3ccc(OC(F)(F)F)cc3)CCO4)ccc2N1 | 
132 µL/min/mg | 92 µg/mL (≈ 192 µM) | 90 µg/mL (≈ 188 µM) | > 20 nM | 0.7 nM |  |  |  |  |  |  |  |  |  | O=C(Cc1ccccn1)N1CCC2(CC1)CN(C(=O)Nc1ccc(OC(F)(F)F)cc1)CCO2 | 
 |  |  |  | 2.96 nM |  |  |  |  |  |  |  |  |  | O=C(Nc1ccc(OC(F)(F)F)cc1)N1CCC2(CCCN(C(=O)c3c(F)cccc3F)C2)CC1 | 
62 µL/min/mg | 90 µg/mL (≈ 180 µM) | 89 µg/mL (≈ 178 µM) | 11.6 nM | 0.6 nM |  |  |  |  |  |  |  |  |  | O=C(Nc1ccc(OC(F)(F)F)cc1)N1CCOC2(CCN(C(=O)c3cc(Cl)ccn3)CC2)C1 | 
